Data on 2 molecules can be found in patent US20230031280A1, “GLP-2 FUSION POLYPEPTIDES AND USES FOR TREATING AND PREVENTING GASTROINTESTINAL CONDITIONS” (SHIRE-NPS PHARMACEUTICALS, INC., priority 2017, published 2023).

Like-named read-outs stand apart in the source and are kept apart here.

For data set [1] the following is noted: cited from earlier work.
Data set [2] deals with monomer/dimer self-association. As to the kind of experiment: Microscale thermophoresis (MST) monomer/dimer equilibrium. Format: physicochemical. As for the experimental part:
(§1) Microscale thermophoresis (MST) and nano differential scanning fluorimetry (NanoDSF) were performed to characterize the dimer-monomer transition. MST was used to determine the monomer/dimer equilibrium dissociation constant Kd. MST is based on thermodriven diffusion of molecules while NanoDSF is based on Trp fluorescence and is commonly used for thermostability Tm.

Data set [3] has as its target GLP-2-Fc self-association. As to the kind of experiment: NanoDSF at room temperature, monomer/dimer self-association. Format: physicochemical. How it is done:
as §1
In the NanoDSF assay, room temperature is used and one tryptophan in GLP-2 is targeted that potentially undergoes conformational changes during GLP-2-Fc self-association. Only the tryptophan fluorescence from the protein contributes to the signal. If tryptophan is buried or stable, the peak is at 330 nm and if the tryptophan is exposed or flexible, the peak is at 350 nm.
In general terms: Differential scanning fluorimetry follows unfolding on heating by fluorescence.

Data set [4] in a line: Cynomolgus monkey pharmacokinetic study. Format: in vivo, cynomolgus monkeys. The note with it: subcutaneous, 12.5 nmol/kg. How it is done:
Pharmacokinetics studies of teduglutide, GLP-2 Peptibody B and GLP-2 Peptibody K were formed in cynomolgus monkeys with citrulline assayed as a biomarker of GLP-2 concentration. In the study, 12.5 nmol/kg teduglutide was administered subcutaneously to a group of 6 male cynomolgus monkeys at day 1. Then for one set of 2 monkeys, 25 nmol/kg GLP-2 Peptibody B was administered intravenously at day 7, day 21, day 28, day 35, and day 42. For another set of 3 monkeys, 25 nmol/kg GLP-2 Peptibody B was administered subcutaneously at day 7, day 21, day 28, day 35, and day 42. For another set of monkeys, 5 nmol/kg GLP-2 Peptibody K was administered intravenously (2 monkeys) and subcutaneously (3 monkeys) at day 7, day 21, day 28, day 35, and day 42. For another set of monkeys, 25 nmol/kg GLP-2 Peptibody K was administered subcutaneously (3 monkeys) and intravenously (2 monkeys) at day 7, day 21, day 28, day 35, and day 42.

Data set [5] is described as follows: Mouse pharmacokinetics of GLP-2 peptibody K274. It is filed as in vivo. The note with it: CD1 mice, Q3D over 14 days. As for the experimental part: A pharmacokinetics analysis was performed in CD1 mice. […] Mice were divided into groups, with one group administered 0.45 mg/kg every three days (Q3D), another administered 1.5 mg/kg Q3D, another administered 4.5 mg/kg Q3D, and another administered 15 mg/kg Q3D over a 14 day period. After dosing was discontinued, concentrations were measured 3, 9, 14, and 21 days later.

The test system of data set [6] is CD-1 mice. As to the kind of experiment: Pharmacodynamic plateau study (small intestine weight). Format: in vivo. As to conditions: female CD-1 mice. How it is done: Various doses of GLP-2 peptibody K274 were analyzed in female CD-1 mice to assess the pharmacodynamic plateau, with the primary endpoint a measurement of the small intestinal weight relative to the total body weight and a histology study of the length of villi. Eight groups of six females each were formed. In two groups, only the vehicle was administered Q3D for as a negative control. In four groups, the following doses were administered Q3D over 14 days: 0.45 mg/kg, 1.5 mg/kg, 4.5 mg/kg and 15 mg/kg. In one additional group, 4.5 mg/kg was administered Q3D for 14 days with the study ending four days later at day 18. In another additional group, 4.5 mg/kg was administered Q3D for 14 days with the study ending seven days later at day 21.
For the primary endpoint, the small intestine weight in grams is shown in FIG. 12A, the small intestine weight normalized to body weight is shown in FIG. 12B, and the colon weight normalized to body weight is shown in FIG. 12C. A dose of 4.5 mg/kg had maximum effect.
FIG. 13B is a graph depicting the percentage change in small intestine weight for both vehicle and GLP-2 peptibody K274.

Data set [7] has as its system CD-1 mice. The experiment in a line: Histology study of villi length, washout period. Format: in vivo, female CD-1 mice. As to conditions: 4.5 mg/kg Q3D over 14 days, days 15, 18, 21. As for the experimental part:
Various doses of GLP-2 peptibody B264 were analyzed to assess the pharmacodynamic plateau, with the primary endpoint a measurement of the small intestinal weight relative to the total body weight and a histology study of the length of villi. 11 groups of six female CD-1 mice each were formed.
For histology, four micron paraffin sections were prepared for H&E and Ki67 IHC staining. After whole slide scanning, an imagescope was used to measure villi length and crypt depth, and to analyze Ki67. The antibody against Ki67 is a rabbit antibody sold by Adcam®, catalog number ab 616667. The antibody was used at a working concentration of 1:100 and was detected using a Leica® Refine Kit.
The first day after the washout period ends is day 15, the second day is day 16, etc. Day 2 of the washout period corresponds with day 15. Day 5 of the washout period corresponds with day 18. Day 8 of the washout period corresponds with day 21. D15, D18, and D21 correspond to days 15, 18 and 21 on which the villi length was measured.

A short description of data set [8]: Rat pharmacokinetic comparability with/without C-terminal lysine. The note with it: 1 mg/kg, intravenous and subcutaneous. It is filed as in vivo, Sprague-Dawley rats. As for the experimental part: 1 mg/kg of total GLP-2 peptibody K protein was administered subcutaneously to one group of six male Sprague-Dawley rats. 1 mg/kg of total GLP-2 peptibody K274 protein was administered intravenously to another group of six male Sprague-Dawley rats. 1 mg/kg of total GLP-2 peptibody B protein was administered subcutaneously to a third group of five male Sprague-Dawley rats. 1 mg/kg of total GLP-2 peptibody B264 protein was administered subcutaneously to a fourth group of five male Sprague-Dawley rats.
For all of the above groups, plasma samples were taken pre-dose, and at the following time points post-dose: 5 minutes (day 1), 10 minutes (day 1), 20 minutes (day 1), 30 minutes (day 1), 1 hour (day 1), 2 hours (day 1), 6 hours (day 1), 24 hours (day 2), 48 hours (day 3), 72 hours (day 4), 120 hours (day 6), 168 hours (day 8), 240 hours (day 11), and 336 hours (day 15).
Tables showing the pharmacokinetic data comparing intravenously administered GLP-2 peptibody K and GLP-2 peptibody K274 are in FIG. 10B. Tables showing the pharmacokinetic data comparing subcutaneously administered GLP-2 peptibody K and GL-2 peptibody K274 are in FIG. 10C.

Data set [9] deals with mice. The experiment in a line: Fat (triglyceride) tolerance test with olive oil bolus. It is filed as in vivo. As to conditions: female mice, 4.5 mg/kg every 3 days for 13 days, olive oil bolus 10 mL/kg, vs vehicle. How it is done: A fat tolerance assay was performed in mice to assess the ability of GLP-2 peptibody K274 to promote absorption of dietary fats. Dietary fat is hydrolyzed into free fatty acids and glycerides, which are transported through the intestinal villi and absorbed by enterocytes. The enterocytes synthesize the triglycerides, which then enter the bloodstream. Such postprandial triglycerides peak in the bloodstream at about 3 hours after ingestion of a fat-rich meal.
It is hypothesized that GLP-2 peptibody K274, by enhancing length of the intestinal villi, would improve the absorption of fatty acids in a mouse model of short bowel syndrome. Assaying for an increase in peak postprandial triglycerides allows for detection of such increased absorption.
Female mice were divided into two groups of […] mice each. Both groups were treated every 3 days for a total of 13 days either with 4.5 mg/kg K274 peptibody (treated group) or vehicle (control group). On day 14 after start of treatment, mice in both groups were fasted for 6 hours followed by administration of an olive oil bolus of 10 mL/kg. Mice in the treated and control groups were divided into 6 subgroups of 6 animals each. […] Plasma triglyceride concentrations were measured on a Cobas C311 instrument (Roche) using the TRIGB assay kit.

As usually defined, the half-life is the time needed for the level to fall by half in the phase considered. Broadly, the Kd is a measure of binding affinity in units of concentration. For the molecule `CC[C@H](C)[C@H](NC(=O)[C@H](Cc1ccccc1)NC(=O)[C@H](CC(=O)O)NC(=O)[C@H](CCCNC(=N)N)NC(=O)[C@H](C)NC(=O)[C@H](C)NC(=O)[C@H](CC(C)C)NC(=O)[C@H](CC(N)=O)NC(=O)[C@H](CC(=O)O)NC(=O)[C@H](CC(C)C)NC(=O)[C@@H](NC(=O)[C@@H](NC(=O)[C@H](CC(N)=O)NC(=O)[C@H](CCSC)NC(=O)[C@H](CCC(=O)O)NC(=O)[C@H](CC(=O)O)NC(=O)[C@H](CO)NC(=O)[C@H](Cc1ccccc1)NC(=O)[C@H](CO)NC(=O)CNC(=O)[C@H](CC(=O)O)NC(=O)CNC(=O)[C@@H](N)Cc1c[nH]cn1)[C@@H](C)O)[C@@H](C)CC)C(=O)N[C@@H](CC(N)=O)C(=O)N[C@@H](Cc1c[nH]c2ccccc12)C(=O)N[C@@H](CC(C)C)C(=O)N[C@H](C(=O)N[C@@H](CCC(N)=O)C(=O)N[C@H](C(=O)N[C@@H](CCCCN)C(=O)N[C@H](C(=O)N[C@H](C(=O)N[C@@H](CC(=O)O)C(=O)O)[C@@H](C)O)[C@@H](C)CC)[C@@H](C)O)[C@@H](C)CC` [teduglutide], the half-life is roughly 1.3 h in data set [1] (SBS patients) and “approximately 2 hours” in data set [1] (healthy patients). The Kd in [2] is 24 ± 3 µM; in data set [3] it was 77 ± 14 µM. Besides, in data set [4], the Vc was 0.218 L/kg. In [4], the “association constant (ka)” value was 9.67 day⁻¹.
One may read the CL/F as clearance divided by bioavailability, as obtained after extravascular dosing. In data set [5], “GLP-2 peptibody K274: GLP-2[A2G]-GGGGSGGGGSGGGGS linker-IgG1 Fc (LALA) without C-terminal lysine; SEQ ID NO: 7” displayed a CL/F of 3.39 mL/h/kg and a Vc of 0.213 L/kg. Further, in data set [6] (4.5 mg/kg Q3D for 14 days, washout), the “persistence of increased small intestine weight normalized to body weight after dosing” value is on record as “persisted for at least five days after dosing”. The “dose with maximum effect on small intestine / colon weight” value in [6] (Q3D over 14 days) was 4.5 mg/kg. Also, the “persistence of villi length during washout period” value in data set [7] is recorded as “more persistence than does GLP-2 peptibody B264”. The “pharmacokinetic comparability of K and K274” value in [8] was “identical from a pharmacokinetic point of view”. Besides, in [9], the “postprandial triglyceride concentration in the bloodstream” value is “significantly higher”.
